Where two headings read alike, the source gives them in different places.
Assays:
[1] = cited from earlier work; for efficacy in painful, inflammatory or allergic disorders: compared with capsaicin compositions; for localized burning and stinging / local adverse effects: compared with capsaicin
[2] = tested on: hot-plate animal model; settings: oral civamide; cited from earlier work
[3] = tested on: Chung animal model; settings: oral civamide; cited from earlier work
[4] = tested on: Formalin animal model; settings: oral civamide; cited from earlier work
[5] = rodents; cited from earlier work
[6] = dogs; cited from earlier work
[7] = tested on: normal volunteers; test: Abdominal distress / gastrointestinal discomfort after oral capsules in normal human volunteers; type: in vivo; settings: soft gel capsules (not enteric coated)

## COc1cc(CNC(=O)CCCC/C=C\C(C)C)ccc1O [civamide, cis-8-methyl-N-vanillyl-6-nonenamide]
[1]
  efficacy in painful, inflammatory or allergic disorders: comparable in efficacy
  localized burning and stinging / local adverse effects: significantly less local adverse effects
[1]; listed as Civamide
  efficacy in painful, inflammatory or allergic disorders: effective
  localized burning and stinging / local adverse effects: significantly less of the localized burning and stinging
[2]
  analgesia: effective analgesia
[3]
  analgesia: effective analgesia
[4]
  analgesia: effective analgesia
[5]
  absorption of an administered oral dose: 8-12%
[6]
  absorption of an administered oral dose: 8-12%
[7]
  abdominal distress / local burning and discomfort in the gastrointestinal tract: more local burning and discomfort in the gastrointestinal tract than comparable dosages of capsaicin
